“And” between values parts separate entries of the source, which are not always exact repeats. Equal values may be shown once. Read-outs that look alike come from different tables or passages of the source. One block for each compound: values may come before it.
Legend:
[1] = molecular target: T1, HA-α2AAR (Mus musculus, UniProt Q01338); details: 1 µM
T1 sequence (Q01338 1-465): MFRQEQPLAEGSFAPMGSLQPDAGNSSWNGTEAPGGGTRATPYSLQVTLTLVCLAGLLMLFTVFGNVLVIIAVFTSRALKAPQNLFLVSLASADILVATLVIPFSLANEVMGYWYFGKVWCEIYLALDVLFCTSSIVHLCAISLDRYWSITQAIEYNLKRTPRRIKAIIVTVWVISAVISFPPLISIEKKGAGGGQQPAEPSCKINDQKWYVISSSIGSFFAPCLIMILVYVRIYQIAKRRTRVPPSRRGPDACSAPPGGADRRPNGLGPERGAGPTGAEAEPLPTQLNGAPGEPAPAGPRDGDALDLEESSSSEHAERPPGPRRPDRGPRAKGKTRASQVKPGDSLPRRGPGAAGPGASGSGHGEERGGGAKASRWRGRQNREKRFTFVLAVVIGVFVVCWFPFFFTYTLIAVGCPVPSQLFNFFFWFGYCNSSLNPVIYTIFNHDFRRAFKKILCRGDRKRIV

[2] = molecular target: human α2AAR; details: ref NIMH Psychoactive Drug Screening Program (PDSP) Ki Database, cited from earlier work
[3] = clinical blood plasma level; ref Baldessarini and Tarazi (2006); cited from earlier work
[4] = molecular target: α2AAR/Arr3 interaction (Mus musculus, UniProt Q01338); details: 1 µM, live HEK 293 cells
Chain of α2AAR/Arr3 interaction (P32121 whole entry partner, one chain of several): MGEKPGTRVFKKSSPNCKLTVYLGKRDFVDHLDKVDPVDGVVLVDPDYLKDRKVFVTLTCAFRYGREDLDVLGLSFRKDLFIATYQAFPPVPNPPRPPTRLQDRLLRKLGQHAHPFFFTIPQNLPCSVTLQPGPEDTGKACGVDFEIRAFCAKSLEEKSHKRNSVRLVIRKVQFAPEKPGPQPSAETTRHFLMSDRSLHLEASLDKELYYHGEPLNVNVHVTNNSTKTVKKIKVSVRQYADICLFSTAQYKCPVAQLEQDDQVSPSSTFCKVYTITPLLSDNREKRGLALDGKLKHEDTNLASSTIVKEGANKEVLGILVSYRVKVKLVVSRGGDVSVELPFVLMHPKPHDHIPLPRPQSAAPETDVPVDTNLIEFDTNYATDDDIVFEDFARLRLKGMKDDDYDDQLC

[5] = molecular target: T1, HA-α2AAR; details: 1 µM, 30 min
[6] = test system: α2AAR-mediated activation of the ERK1/2 MAP kinase pathway; experiment: Western blot for phospho-ERK1/2 in WT MEF cells; type: cell-based, murine; details: 1 µM
[7] = molecular target: T2, α2AAR (Mus musculus, UniProt Q01338); experiment: cAMP assay; type: cell-based, murine; details: ligand 10 µM, 10 µM forskolin, 20 min
T2 sequence (Q01338 1-465): T1 sequence (Q01338 1-465)

- receptor loss from the cell surface ([1]; WT MEF cells): ~30%
- α2AAR endocytic response in arrestin-null (Arr2,3−/−) MEF cells ([1]; 5, 10, 30 min): lost
- α2AAR/Arr3 interaction (FLIM-FRET efficiency) [4]: robust α2AAR/Arr3 interaction
- α2AAR endocytosis (intracellular punctae) [5]: robust α2AAR endocytosis
SMILES: CN(C)CCCN1c2ccccc2Sc2ccc(Cl)cc21 [Chlorpromazine, chlorpromazine]
- Ki ([2]; read-out: Reported values at human α2AAR, Avg.): 251 nM
- Ki ([2]; read-out: Reported values at human α2AAR, Range): 78 to 558 nM
- Therapeutic range [3]: 90 to 2350 nM

SMILES: CN1CCN(C2=Nc3cc(Cl)ccc3Nc3ccccc32)CC1 [Clozapine, clozapine]
- ERK1/2 activation (pERK1/2) [6]: unable to detect any ERK1/2 activation

SMILES: OCCN1CCN(CCCN2c3ccccc3Sc3ccc(C(F)(F)F)cc32)CC1 [Fluphenazine, fluphenazine]
- Therapeutic range [3]: 20–100 ng/ml and 50–230 nM

- Gαi-mediated inhibition of cAMP production [7]: ~50%
SMILES: NC[C@H](O)c1ccc(O)c(O)c1 [NE, norepinephrine]
